Experiments:
[1] = system: human hepatocytes; assay: Hepatocytes stability assay (human hepatocytes); type: in vitro ADME; conditions: human hepatocytes; scaled hepatic clearance divided by liver blood flow (well-stirred model, fu assumed unity)
Procedure, shortened: (§1)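 Compound at 1 μM (0.1% DMSO) was incubated with cryopreserved pooled human hepatocytes, 1×10^6 cells/mL in Krebs-Henseleit buffer, at 37 °C, sampled up to 240 min. Parent depletion by LC-MS/MS; half-life from first-order decay gave CLint, scaled to hepatic clearance by well-stirred model (fu assumed 1) and extraction ratio.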

[2] = Hepatocytes stability assay (human hepatocytes); type: in vitro ADME; conditions: both sexes, human, cryopreserved hepatocytes, cryopreserved human hepatocytes (pool of 50 mixed gender); 1 μM test compound; 1×10^6 cell/mL; 37 degrees C; read-out: CLint (μL/min/million cells)
Procedure, shortened: as §1

[3] = molecular target: T1, human orexin-2 receptor (OX2R) (Homo sapiens, UniProt O43614); assay: Human OX2R IP1 assay; type: cell-based; conditions: T-Rex CHO cells stably overexpressing human OX2R; IP1 accumulation; 1 hr at 37 degrees C; mean EC50
T1 construct: expressed in transfected cells
T1 sequence (O43614 1-444): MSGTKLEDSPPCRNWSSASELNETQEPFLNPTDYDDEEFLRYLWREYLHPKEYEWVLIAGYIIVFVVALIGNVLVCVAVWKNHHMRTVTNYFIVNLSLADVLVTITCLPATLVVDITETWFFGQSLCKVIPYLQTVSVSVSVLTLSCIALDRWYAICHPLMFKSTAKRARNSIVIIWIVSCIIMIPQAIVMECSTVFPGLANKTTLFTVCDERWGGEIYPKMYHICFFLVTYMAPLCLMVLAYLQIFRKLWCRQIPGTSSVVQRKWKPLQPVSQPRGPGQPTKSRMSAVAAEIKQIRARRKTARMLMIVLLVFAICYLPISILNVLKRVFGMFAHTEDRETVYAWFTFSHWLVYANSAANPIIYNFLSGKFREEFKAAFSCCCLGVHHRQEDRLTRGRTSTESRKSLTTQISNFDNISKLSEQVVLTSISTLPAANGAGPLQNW
Procedure, shortened: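 T-Rex CHO cells stably expressing human OX2R, doxycycline-induced (1 μg/mL) overnight, treated with compounds 1 h at 37 °C in pH 7.4 buffer with 50 mM LiCl. IP1 accumulation read by HTRF competitive immunoassay after 1 h at room temperature; agonist EC50 reported as mean ± S.E.M.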

SMILES | Extraction Ratio (ER) [1] | hepatocyte CLint at 1 μM [2] [µL/min/1e6 cells] | EC50 [3] [µM]
CC(C)(O)C(=O)N1CC[C@H](NS(C)(=O)=O)[C@@H]1Cc1cccc(-c2cc(F)cc(F)c2)c1F [Reference Compound B, N-((2S,3S)-1-(2-hydroxy-2-methylpropanoy1)-2-((2,3′,5′-trifluorobipheny1-3-yl)methyl)pyrrolidin-3-yl)methanesulfonamide, reference compound] | 0.19 | 1.5 | 0.01 to 1
Cc1cccc2c1[C@H]1CC[C@H](CC1)OC[C@H]1[C@@H](NS(C)(=O)=O)CCN1C(=O)CO2 [Compound 20] | 0.80 | 27 | < 0.01
Cc1ncnc2c1[C@H]1CC[C@H](CC1)OCC1[C@@H](NS(C)(=O)=O)CCCN1C(=O)CO2 (stereo in doubt) [Compound 27] | <0.22 | < 1.9 | < 0.01
O=C1COc2cccc(F)c2[C@H]2CC[C@H](CC2)OCC2[C@@H](NS(=O)(=O)C(F)(F)F)CCCN12 (stereo in doubt) [Compound 95] | 0.33 | 3.3 | < 0.01
O=C1COc2nccnc2[C@H]2CC[C@H](CC2)OCC2[C@@H](NS(=O)(=O)C(F)(F)F)CCCN12 (stereo in doubt) [Compound 98] | <0.22 | < 1.4 | < 0.01
O=C1COc2ccccc2[C@H]2CC[C@H](CC2)OCC2[C@@H](NS(=O)(=O)C(F)(F)F)CCN12 (stereo in doubt) [Compound 100] | 0.274 | 2.5 | < 0.01
CC(C)S(=O)(=O)N[C@H]1CCN2C(=O)COc3c(F)cc(F)cc3[C@H]3CC[C@H](CC3)OC[C@@H]12 [Compound 29] | 0.70 | 15 | < 0.01
O=C1COc2ncccc2[C@H]2CC[C@H](CC2)OCC2[C@@H](NS(=O)(=O)C(F)(F)F)CCCN12 (stereo in doubt) [Compound 91] | 0.42 | 4.8 | < 0.01
Cc1ccnc2c1[C@H]1CC[C@H](CC1)OCC1[C@@H](NS(=O)(=O)C(F)(F)F)CCN1C(=O)CO2 (stereo in doubt) [Compound 94] | <0.22 | < 1.9 | < 0.01
COC(=O)N1CCC[C@H](NS(C)(=O)=O)[C@@H]1CO[C@H]1CC[C@@H](c2ccccc2)CC1 [Reference Compound A, methyl (2R,3S)-3-((methylsulfonyl)amino)-2-(((cis-4-phenylcyclohexyl)oxy)methyl)-piperidine-l-carboxylate, reference compound] | 0.92 | 76 | < 0.01
Cc1ncnc2c1[C@H]1CC[C@H](CC1)OCC1[C@@H](NS(=O)(=O)C(F)(F)F)CCCN1C(=O)CO2 (stereo in doubt) [Compound 99] | <0.22 | < 1.4 | < 0.01
